Source: patent US6518423B1, “Benzopiperidine derivatives” (Eisai Co., Ltd., priority 1996, dated 2003)

Row | SMILES | melting point
1 | c1cn(Cc2ccc3c(c2)Nc2nccnc2O3)cn1 | 252 to 255 °C
2 | c1cnc2c(c1)ccn2Cc1ccc2c(c1)Nc1nccnc1S2 | 202 to 204 °C
3 | c1cc2ccnc-2n(Cc2ccc3c(c2)Nc2nccnc2S3)c1 | 210 to 214 °C
4 | c1ccc2c(c1)nnn2Cc1ccc2c(c1)Nc1nccnc1S2 | 251 to 258 °C
5 | O=C(NCc1ccc2c(c1)Nc1nccnc1S2)c1ccncc1 | 249 to 253 °C (dec.)
6 | c1cnc2c(n1)Nc1cc(Cn3cnc4ncnc(N5CCOCC5)c43)ccc1S2 | 269 to 273 °C
7 | O=C(O)CCCCCCCCCCSc1ncnc2c1ncn2Cc1ccc2c(c1)Nc1nccnc1S2 | 154 to 156 °C
8 | Cl.N=C(Cc1ccc2c(c1)Nc1nccnc1S2)NCCO | 174 to 175 °C
9 | N#CN=C(Cc1ccc2c(c1)Nc1nccnc1S2)NO | 253 to 256 °C
10 | N#CN=C(Cc1ccc2c(c1)Nc1nccnc1S2)NCCCC(=O)O | 217 to 218 °C (dec.)
11 | O=C(O)Cc1cc2c(s1)CN(Cc1ccc3c(c1)Nc1nccnc1S3)CC2 | 98 to 105 °C
12 | COc1ccc2c(c1)Nc1nccnc1N2C | 198 to 201 °C
13 | Cl.Oc1ccc2c(c1)Nc1nccnc1N2 | > 275 °C
14 | OCCN1c2ccccc2Nc2nccnc21 | 197 to 204 °C
15 | c1csc(NCc2ccc3c(c2)Nc2nccnc2S3)n1 | 230 to 235 °C
16 | c1cc(CNCc2ccc3c(c2)Nc2nccnc2S3)ccn1 | 174 to 176 °C
17 | COC(=O)c1ccc(NCc2ccc3c(c2)Nc2nccnc2S3)nc1 | 140 to 148 °C
18 | Nc1ncccc1NCc1ccc2c(c1)Nc1nccnc1S2 | 225 to 228 °C
19 | CC(=O)N(Cc1ccc2c(c1)Nc1nccnc1S2)c1cccnc1 | 212 to 214 °C
20 | O=C(Nc1ccccc1)N(Cc1ccc2c(c1)Nc1nccnc1S2)c1cccnc1 | 208 to 210 °C

Now from value to compound:

Row | melting point | SMILES
21 | 223 to 226 °C | c1cnc2c(n1)Nc1cc(Cn3cncn3)ccc1S2
22 | 123 to 127 °C | OCCC1C2CCCC1CN(Cc1ccc3c(c1)Nc1nccnc1S3)C2 (centres unmarked)
23 | 217 to 220 °C | O=C(O)C1CCC(CNCc2ccc3c(c2)Nc2nccnc2S3)CC1 (centres unmarked)
24 | 143 to 146 °C | CNS(=O)(=O)CCN(C)Cc1ccc2c(c1)Nc1nccnc1S2
25 | 181 to 183 °C | CC(C)(CO)C1C2CCCC1CN(Cc1ccc3c(c1)Nc1nccnc1S3)C2 (centres unmarked)
26 | 166 to 171 °C | CC(CCC1CCN(C(=N)Cc2ccc3c(c2)Nc2nccnc2S3)CC1)C(=O)O.Cl (centres unmarked)
27 | 175 to 176 °C | CS(=O)(=O)/N=C/NCc1ccc2c(c1)Nc1nccnc1S2
28 | 187 to 189 °C | OCc1ccc2c(c1)Nc1nccnc1S2
29 | 161 to 162 °C | ClCc1ccc2c(c1)Nc1nccnc1S2
30 | 148 to 152 °C | OCCC1CCN(Cc2ccc3c(c2)Nc2nccnc2S3)CC1
31 | 198 to 199 °C | N#CC1CCN(Cc2ccc3c(c2)Nc2nccnc2S3)CC1
32 | 164 to 166 °C | O=S(=O)(NCCO)NC1CCN(Cc2ccc3c(c2)Nc2nccnc2S3)CC1
33 | 211 to 212 °C | O=C1CC2(CCN(Cc3ccc4c(c3)Nc3nccnc3S4)CC2)CN1
34 | 215 to 217 °C (dec.) | NS(=O)(=O)N1CCN(Cc2ccc3c(c2)Nc2nccnc2S3)CC1
35 | 186 to 190 °C | N=C(NC1CCN(Cc2ccc3c(c2)Nc2nccnc2S3)CC1)C(=O)O
36 | 218 to 221 °C | CS(=O)(=O)NCC1CCN(Cc2ccc3c(c2)Nc2nccnc2S3)CC1
37 | 84 to 88 °C | CS(=O)(=O)NCC1CN(Cc2ccc3c(c2)Nc2nccnc2S3)C1
38 | 133 to 135 °C | c1cnc2c(n1)Nc1cc(CN3CCCCCCC3)ccc1S2
39 | 188 to 191 °C | c1ccc2c(c1)CCN(Cc1ccc3c(c1)Nc1nccnc1S3)C2
40 | 126 to 130 °C | C/C(=C\C(=O)O)CC1CCN(Cc2ccc3c(c2)Nc2nccnc2S3)CC1
41 | 226 to 229 °C | CC12CCCC(C)(CN(Cc3ccc4c(c3)Nc3nccnc3S4)C1)C2CC(=O)O (centres unmarked)
